Test results reported in EP2662079A1 (Ordway Research Institute, Inc., priority 2012, dated 2013).
Where “and” joins values, the source holds several entries; their conditions need not be identical. Equal values may be shown once.

How the values were obtained:
[1] = test system: Human medullary carcinoma cells (TT); type: in vivo
Text: Cells and cell culture. […] Tetrac versus Tetrac NP distribution in h-MTC. […] Penicillin streptomycin (1%) was present in both culture media. […] Cell implantation in nude mice. […] Water and food were provided ad libitum.
(§1) Treatment of animals with unmodified or nanoparticulate Tetrac. […] Estimation of tumor response to Tetrac or nanoparticulate Tetrac. […] Statistical analysis for CAM and xenograft studies. […] Statistical significance was defined as P <0.05. RNA microarray analysis.

[2] = test system: SKN-SH, SaOS2, and MCF7 cells; assay: Proliferation of drug-sensitive and drug-resistant cancer cells (MTT assay); type: cell-based
Text: Cells were harvested and nuclear fractions prepared as described previously. Nucleoproteins, separated by gel electrophoresis, were immunoblotted with antibody to phosphorylated MAPK (pERK1 and pERK2, 44 and 42 kDa, respectively), followed by a second antibody linked to a luminescence-detection system. A β-action immunoblot of nuclear fractions serves as a control for gel loading in each part of this figure. […] The levels of FGF2 cDNA, shown in the top blot, were corrected for variations in GAPDH cDNA content, shown in the bottom blot, and the corrected levels of FGF2 are illustrated below in the graph (mean ±SE of mean; n = 2 experiments). […] Drug-sensitive and -resistant SKN-SH (Figures 13C-D), SaOS2 (Figures 13A-B), and MCF7 (Figures 13E-F) cells were subjected to treatment with increasing concentrations of Tetrac or Doxirubicin over a period of 4 days. Cell viability was then measured by MTT assay. […] The cells were treated for 24 h with each drug alone or the combination of both, after that, expression of drug resistance molecules was determined by Western blot using specific antibodies. […] The cells were incubated for 24 hours with doxorubicin in the absence or the presence of Tetrac, after that they were washed and then solubilized. […]

[3] = test system: U87MG cells; assay: Colony forming efficiency and flow cytometry; type: cell-based, human; settings: Tetrac for 1 h at 37°C
Method: U87MG cells were seeded at 10^6 cells/100 mm^2 dish and incubated at 37°C for 24 h. Adherent cells were trypsinized and washed once in ambient temperature PBS. Cells were then fixed in 70% ethanol, and stored overnight at 4°C. Cells were prepared for cell cycle analysis by first pelleting the cells (1000 rpm, 7 min, 4°C), and then resuspending the pellet in 1 mL of PBS containing 0.2 mg/mL propidium iodide (Boehringer Mannheim, Indianapolis, IN), with incubation in the dark for 30 min. Cells were then left overnight at 4°C in the dark. Cells were analyzed on a Coulter fluorescence-activated cell sorter (Coulter Electronics, Hialeah, FL). Cells were excited with a single 488 nm argon laser, and the resulting fluorescence was detected using a 585 nm filter. Linear red-orange FL3 data were collected (10,000 events per collection). The distribution of cells within the cell cycle was determined using a Coulter software program.

[4] = test system: GL261 cells; assay: Sublethal damage repair (SLDR), split-dose x-rays; type: cell-based, murine
Method: SLDR was measured at 10% immediate survival level as determined from the acute single dose curve for both control and Tetrac-treated cells in both growth states (i.e. exponentially growing and plateau phase cells. Flasks were irradiated with one-half of the total dose and returned to the 37°C incubator. At increasing periods of time, flasks were removed, and given the second half of the immediate 10% survival dose. Survival was measured at 0, 0.5, 1.0, 1.5, 2.0, 3.0, 4.0, 6.0, 8.0, and 10.0 hours after the initial dose.
(§2) To investigate the effects of Tetrac on SLDR and PLDR, cells were chosen that had been given a one-hour treatment with Tetrac at two different times, i.e., at 70 and 270 hours post-seeding).

[5] = test system: U87MG cells; assay: Neutral comet assay (DNA double-strand breaks); type: cell-based, human
Method: For the comet assay studies of induction and repair of DSBs in U87MG cells, cells were treated as described above. However, for the single dose induction ofDSBs doses ranged from 0-30 Gy, and for the study of the repair ofDSBs in irradiated cells, a large single dose of 60 Gy requiring approximately 1 h of irradiation time was given. Appropriate temperature controls (on ice) were run to insure that no decrement in survival was produced by the 1 h exposure to 0°C.
U87MG cells on plastic slides were exposed to 2 nM Tetrac for 1 h at 37°C. These slides were then placed on crushed ice and irradiated with doses from 0 to 75 Gy. Slides were immersed in lysing solution at 50°C for 2 hours. Slides were washed, and placed into a gel electrophoresis unit. Electrophoresis was carried out at 0.66 V/cm for 25 min. Cells were stained with ethidium bromide and image analysis was done using an epifluoresence microscope at a total magnification of 400 X. We also used an excitation filter of 515-535 nm and a barrier filter at 590 nm. The mean tail moment (TM) which is expressed in arbitrary units was then calculated. TM was calculated using a CCD camera and software. Approximately 350 comets were analyzed per condition.

[6] = test system: h-MTC cells; assay: RNA microarray of MTC cells; type: cell-based, human
Text: as §1

[7] = test system: GL261 cells; assay: Potentially lethal damage repair (PLDR); type: cell-based, murine
Method: PLDR was also measured using the 10% survival level in both control and Tetrac treated-cells, and was also done for both exponentially growing and plateau phase cells. The total 10% survival dose was given, and then cells were placed back into the 37°C incubator for various periods of time. At 0, 0.5, 1.0, 1.5, 2.0, 3.0, 4.0, 6.0, 8.0, and 10.0 hours, flasks were removed, and processed for survival assessment.
as §2

[8] = single dose of 30 Gy, Tetrac-treated cells

O=C(O)Cc1cc(I)c(Oc2cc(I)c(O)c(I)c2)c(I)c1 [Tetrac, 3,3',5,5'-tetraiodothyroacetic acid]
reduction of tumor mass compared to controls ([1]; Tetrac 10 mg/kg i.p., nanoparticulate Tetrac 1 mg/kg i.p., end of study): 65-80% | decrease of tumor tissue hemoglobin content ([1]; Tetrac 10 mg/kg or Tetrac NP 1 mg/kg i.p. daily for 3 weeks): 66% | reduction in tumor-associated neovascularization (hemoglobin levels in tumor tissue) ([1]; Tetrac 10 mg/kg or Tetrac NP 1 mg/kg i.p. daily for 21 days): 70-80% | tumor size ([1]; Tetrac 10 mg/kg or Tetrac NP 1 mg/kg i.p. daily, over 21 days): < 100 mm^3 | time to detected reduction in tumor size ([1]; after initiation of treatment): ≤ 2 days | anti-proliferative activity in vitro against drug-sensitive and drug-resistant cells ([2]; 4 days, MTT (Figure 13)): equivalent | cellular responses to doxorubicin, etoposide, cisplatin and TSA when combined with Tetrac ([2]; resistant SKN-SH/R, MCF7/R and SaOS2/R cells (Figure 14)): significantly enhanced | G1 ([3]; flow cytometry): 58.2 (± 12.2) % | G2/M ([3]; flow cytometry): 24.8 (± 2.8) % | S ([3]; flow cytometry): 15.4 (± 9.1) % | sub-G1 population ([3]; flow cytometry): 1.5 (± 0.2) % | colony forming efficiency ([3]; mean and 95% confidence limits): 26.0 (± 6.1) % | repair of x-ray damage ([4]; Tetrac 2uM, 6 to 8 hours post-irradiation (Figure 58)): no repair of x-ray damage | recovery ratio ([4]; exponential Tetrac treated cells, 2 hours after the first dose): 1.8 | factor by which Tetrac reduced SLDR ([4]; exponential cells): 1.8 | survival relative to survival seen at 0 hours ([4]; plateau phase cells with Tetrac, 3 hours after the initial dose): approximately 36% | decrease in cellular repair (factor) ([4]; plateau phase cells, three hours post-irradiation): ~3 | increase of the slow repair part of the curve [5]: approximately 2.2 fold | sensitization factor (steady-state DSB levels) ([5]; 0 Gy): 2.2 | mean tail moment ([5]; 0 radiation dose, 1 h Tetrac at 37°C, arbitrary units): 12.4 and 13.1 | slope of DSB repair versus time ([5]; after 30 Gy of x-rays (control -4.36)): -1.20 | relative percentage of fast repair [5, 8]: 16% | relative percentage of slow repair [5, 8]: 84% | inhibition of the repair of DNA double strand breaks ([5]; vs control U87MG cells): 72.5% | expression of VEGFA [6]: significantly decreased expression | expression of apoptosis-associated genes (CASP2, DFFA, FAF1, CASP8AP2) [6]: caused expression | expression of thrombospondin (THBS1) [6]: increase | factor by which Tetrac inhibited PLDR ([7]; exponential cells): 1.9 | factor by which Tetrac decreased PLDR expression ([7]; plateau phase cells): 3.4
